How the values were obtained:
[1] = test system: A549 and H157 cells; assay: Western blot of autophagy marker p62 with or without chloroquine; type: cell-based, human; details: 48 h, in combination with KRA-533
Method: To assess whether the autophagy inhibitor regulates KRA-533-induced autophagy formation, A549 and H157 cells were treated with KRA-533 in the absence or presence of autophagy inhibitor chloroquine for 48 h, followed by Western blot analysis of the autophagy marker p62.

[2] = test system: A549 and H157; assay: Annexin V/PI apoptosis, KRA-533 alone or with 3-MA; type: cell-based, human; details: 48 h, in combination with KRA-533
Method: To determine whether autophagy plays a role in apoptosis induced by KRA-533, apoptosis was measured by FACS analysis of Annexin V/PI staining following treatments of A549 and H157 with KRA533 alone or in combination with autophagy inhibitor 3-MA for 48 h.

Row | Structure (SMILES) | p62 expression, chloroquine added to KRA-533 [1] | KRA-533-induced apoptosis, 3-MA added [2]
1 | CCN(CC)CCCC(C)Nc1ccnc2cc(Cl)ccc12 (centres unmarked) [chloroquine, reference compound] | restored p62 expression by blocking KRA-533-induced p62 degradation | –
2 | Cn1cnc(N)c2ncnc1-2 [3-MA, 3-methyladenine] | – | enhanced KRA-533-induced apoptosis

From patent US12144791B2, “KRAS agonists, pharmaceutical compositions, and uses in managing cancer” (Emory University, priority 2019, dated 2024)
